For experiment [1], the system named is MDCK cells. The text has this: Ethylenediaminetetraacetic acid (EDTA) is applied to the cells. EDTA is a calcium chelator that removes Ca^2+ needed for integrin proteins to maintain cell adhesion.
FIG. 6b is a data plot showing mean normalized impedances for different regions of the cell culture over time as specified in the map 601. FIG. 6cc are histograms of the normalized impedance values before, during, and after a washout of EDTA across the array.

Experiment [2] concerns MDCK cells. The experiment in a line: Wound healing assay: electrochemically patterned wound, regrowth measured by impedance mapping. The format is cell-based, Canine. The conditions noted are these: 1 μM, over 72 hours, control culture shows regrowth. The text has this:
This example describes a combined application of both the cross-electrode impedance mapping and cell patterning is a wound healing assay.
These assays gauge cell growth rate and metabolism and can be useful for screening drugs affecting these parameters. Compared to the electrochemical patterning described herein, other tools mechanically generate a wound in a cell culture via a mechanical scratch which is both difficult to control and limiting in terms of wound pattern.
In this example, a wound is made in MDCK cells and then the growth is mapped in real-time. […] These patterns were defined by applying electrode currents of −10 nA for 40 s versus a Ag/AgCl pseudo reference electrode. The regrowth of the culture was then measured using the impedance mapping method.

On to `O=C(O)CN(CCN(CC(=O)O)CC(=O)O)CC(=O)O` [EDTA, Ethylenediaminetetraacetic acid], for which the “time course of cell detachment with EDTA applied” value in the experiment with MDCK cells [1] (5 mM EDTA application, normalized impedance maps) is reported as roughly 50 min. Also, the “time course of cell re-attachment after EDTA washout” value in the experiment on MDCK cells [1] (EDTA washed out by adding normal culture media) is on record as roughly 200 min.
`C=C1[C@@H](C)[C@H]2[C@H](Cc3ccccc3)NC(=O)[C@]23OC(=O)/C=C/[C@H](O)CCC[C@@H](C)C/C=C/[C@H]3[C@@H]1O` [cytochalasin B]: the “regrowth of wounded cell culture (normalized cross-electrode impedance maps)” value in the experiment with MDCK cells [2] was “very little growth”.

Values taken from US11747321B2, “Apparatuses for cell mapping via impedance measurements and methods to operate the same” (President and Fellows of Harvard College, priority 2020, dated 2023).
